The NIST ThermoML archive (doi:10.1016/j.fluid.2014.10.015)

Details: Liquid; for mass density: Vibrating tube method; for viscosity: Concentric cylinders viscometry

CC(=O)[O-].CCCCn1cc[n+](C)c1 [1-butyl-3-methylimidazolium acetate]
Details | mass density [kg/m3] | viscosity [mPa·s]
273.15 K, 101 kPa | 1068.3 | –
273.15 K, 101.33 kPa | 1068.29 | –
273.15 K, 238 kPa | 1068.35 | –
273.15 K, 5002 kPa | 1070.1 | –
273.15 K, 10020 kPa | 1071.93 | –
273.15 K, 19968 kPa | 1075.5 | –
273.15 K, 29945 kPa | 1079.01 | –
273.15 K, 40001 kPa | 1082.46 | –
273.15 K, 49987 kPa | 1085.81 | –
273.15 K, 59935 kPa | 1089.07 | –
273.15 K, 69985 kPa | 1092.29 | –
273.15 K, 79928 kPa | 1095.39 | –
273.15 K, 90040 kPa | 1098.47 | –
273.15 K, 99956 kPa | 1101.42 | –
273.15 K, 109260 kPa | 1104.11 | –
273.15 K, 119925 kPa | 1107.11 | –
273.15 K, 129945 kPa | 1109.85 | –
273.15 K, 139956 kPa | 1112.52 | –
278.15 K, 101.33 kPa | – | 3157.5
278.17 K, 101.33 kPa | 1065.11 | –
283.12 K, 747 kPa | 1062.18 | –
283.13 K, 5103 kPa | 1063.85 | –
283.15 K, 101 kPa | 1061.93 | –
283.15 K, 101.33 kPa | – | 1818.3
283.15 K, 59694 kPa | 1083.4 | –
283.15 K, 70000 kPa | 1086.8 | –
283.15 K, 79404 kPa | 1089.83 | –
283.15 K, 90034 kPa | 1093.15 | –
283.15 K, 98553 kPa | 1095.75 | –
283.15 K, 109979 kPa | 1099.13 | –
283.15 K, 120352 kPa | 1102.1 | –
283.15 K, 129998 kPa | 1104.78 | –
283.15 K, 139706 kPa | 1107.39 | –
283.16 K, 9902 kPa | 1065.67 | –
283.16 K, 29987 kPa | 1073.08 | –
283.16 K, 39574 kPa | 1076.5 | –
283.16 K, 50021 kPa | 1080.12 | –
283.17 K, 101.33 kPa | 1061.96 | –
283.17 K, 19845 kPa | 1069.38 | –
293.13 K, 99228 kPa | 1090.59 | –
293.13 K, 110000 kPa | 1093.89 | –
293.13 K, 120552 kPa | 1097.03 | –
293.13 K, 130029 kPa | 1099.77 | –
293.13 K, 139794 kPa | 1102.51 | –
293.14 K, 19892 kPa | 1063.32 | –
293.14 K, 89975 kPa | 1087.68 | –
293.15 K, 101 kPa | 1055.7 | –
293.15 K, 101.33 kPa | – | 689.5
